Experimental data as given in US20250263404A1, “AMINOPYRIDINES AS ACTIVATORS OF PI3 KINASE” (UCL Business Ltd, priority 2021, published 2025).

Columns and labels:
PI3Kβ = molecular target: T1, PI3Kβ (Homo sapiens, UniProt P42338); experiment: ADP-Glo in vitro lipid kinase assay, PI3Kβ; format: biochemical
T1 construct: Full-length p110β/p85α and p110δ/p85α were cloned and expressed in a similar manner; Strep-tag followed by TEV protease site (N, cleaved yes); made in house; host or cells: Spodoptera frugiperda Sf9 (plasmids OP832 and OP809)
T1 sequence (P42338 whole entry, species assumed): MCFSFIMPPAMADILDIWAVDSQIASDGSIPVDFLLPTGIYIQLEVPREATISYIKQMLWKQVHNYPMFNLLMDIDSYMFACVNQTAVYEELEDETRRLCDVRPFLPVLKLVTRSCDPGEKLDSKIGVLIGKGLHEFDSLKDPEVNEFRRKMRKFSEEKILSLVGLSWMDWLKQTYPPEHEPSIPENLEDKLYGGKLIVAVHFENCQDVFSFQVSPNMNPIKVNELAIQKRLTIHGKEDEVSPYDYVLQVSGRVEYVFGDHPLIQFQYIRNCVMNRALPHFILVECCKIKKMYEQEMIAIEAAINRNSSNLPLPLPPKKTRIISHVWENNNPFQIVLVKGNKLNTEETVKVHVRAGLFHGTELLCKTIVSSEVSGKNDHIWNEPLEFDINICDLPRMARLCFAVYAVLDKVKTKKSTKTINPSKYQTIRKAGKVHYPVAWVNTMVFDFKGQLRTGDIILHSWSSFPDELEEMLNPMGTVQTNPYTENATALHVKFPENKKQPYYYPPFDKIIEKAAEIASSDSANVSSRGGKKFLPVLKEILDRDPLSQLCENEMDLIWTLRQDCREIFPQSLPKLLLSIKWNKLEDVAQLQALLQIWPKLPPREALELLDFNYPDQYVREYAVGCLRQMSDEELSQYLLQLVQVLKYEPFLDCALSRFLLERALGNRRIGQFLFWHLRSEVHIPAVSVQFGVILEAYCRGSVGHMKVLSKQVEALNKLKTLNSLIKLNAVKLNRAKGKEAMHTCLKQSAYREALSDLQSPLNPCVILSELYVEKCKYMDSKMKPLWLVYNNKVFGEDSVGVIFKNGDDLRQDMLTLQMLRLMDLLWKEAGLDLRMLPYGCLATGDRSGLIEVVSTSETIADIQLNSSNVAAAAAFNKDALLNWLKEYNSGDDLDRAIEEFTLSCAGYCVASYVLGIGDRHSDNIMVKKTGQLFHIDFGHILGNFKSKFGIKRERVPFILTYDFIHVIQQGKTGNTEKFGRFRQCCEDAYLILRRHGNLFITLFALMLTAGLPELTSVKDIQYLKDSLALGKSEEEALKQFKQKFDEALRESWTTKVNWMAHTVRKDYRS
T1 sequence (P27986 whole entry partner, species assumed): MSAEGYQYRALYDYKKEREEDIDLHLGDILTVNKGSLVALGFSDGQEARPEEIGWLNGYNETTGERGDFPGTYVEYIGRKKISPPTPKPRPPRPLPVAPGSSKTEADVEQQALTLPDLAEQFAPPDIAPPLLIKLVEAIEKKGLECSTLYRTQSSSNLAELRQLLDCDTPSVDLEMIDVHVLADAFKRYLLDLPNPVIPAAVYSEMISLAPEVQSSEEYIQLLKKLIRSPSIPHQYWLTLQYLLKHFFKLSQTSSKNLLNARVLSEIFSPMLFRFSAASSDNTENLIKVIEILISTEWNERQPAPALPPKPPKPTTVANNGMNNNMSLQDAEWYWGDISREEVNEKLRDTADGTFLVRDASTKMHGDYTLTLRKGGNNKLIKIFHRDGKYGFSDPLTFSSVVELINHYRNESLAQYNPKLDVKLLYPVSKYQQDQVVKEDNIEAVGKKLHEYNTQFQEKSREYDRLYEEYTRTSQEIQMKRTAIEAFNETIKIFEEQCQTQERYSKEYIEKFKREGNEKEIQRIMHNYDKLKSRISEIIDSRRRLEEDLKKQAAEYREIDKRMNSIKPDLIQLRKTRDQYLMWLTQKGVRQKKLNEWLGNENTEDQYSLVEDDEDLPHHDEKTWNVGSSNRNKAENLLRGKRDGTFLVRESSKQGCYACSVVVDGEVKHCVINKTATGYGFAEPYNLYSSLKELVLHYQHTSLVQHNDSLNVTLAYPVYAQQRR
Description: The effect of 1938 on the in vitro lipid kinase activity of p85α in complex with p110α, p110β or p110δ (further referred to as PI3Kα, PI3Kβ and PI3Kδ) was tested. As a positive control, a bis-phosphorylated phosphopeptide (a PDGF-receptor-derived peptide phosphorylated on Tyr-740 and Tyr-751, hereafter referred to as pY peptide) was used to mimic engagement of the p85α SH2 domains with tyrosine-phosphorylated peptides in membrane-bound receptors and adaptor proteins, known to activate the PI3Kα complex.
Kinase reactions were performed with ADP-Glo kinase assay kit (Promega Corporation). The enzyme, substrate and compounds were diluted in reaction buffer (20 mM HEPES, 50 mM NaCl, 50 mM KCl, 3 mM MgCl2, 1 mM EGTA, 1 mM TCEP, pH 7.4). Final concentrations of PI3Kα and PI3Kδ used were 25 nM and 50 nM for PI3Kβ. […]
For compound profiling, the reaction mixture contained 2 μl PI3K enzyme, 2 μl compound and/or pY and 2 μl of liposome substrate mixed with ATP. […] Luminescence was read using a Sense (Hidex) plate reader. […]
For characterisation of the effects of 1938 on in vitro PI3K enzymology, all reactions were performed at room temperature with 384 white-polystyrene plates (Corning #3574). […] For enzyme kinetic calculations, data was expressed as velocity (pmol of ADP generated/sec). […]

PI3Kα = PI3Kα (Homo sapiens, UniProt P42336); experiment: pAKT S473 ELISA in A549 cells (PI3Kα activation); format: cell-based; design: endogenous in cells; host or cells: A549; details: A549 cells
Chain of PI3Kα (P42336 whole entry): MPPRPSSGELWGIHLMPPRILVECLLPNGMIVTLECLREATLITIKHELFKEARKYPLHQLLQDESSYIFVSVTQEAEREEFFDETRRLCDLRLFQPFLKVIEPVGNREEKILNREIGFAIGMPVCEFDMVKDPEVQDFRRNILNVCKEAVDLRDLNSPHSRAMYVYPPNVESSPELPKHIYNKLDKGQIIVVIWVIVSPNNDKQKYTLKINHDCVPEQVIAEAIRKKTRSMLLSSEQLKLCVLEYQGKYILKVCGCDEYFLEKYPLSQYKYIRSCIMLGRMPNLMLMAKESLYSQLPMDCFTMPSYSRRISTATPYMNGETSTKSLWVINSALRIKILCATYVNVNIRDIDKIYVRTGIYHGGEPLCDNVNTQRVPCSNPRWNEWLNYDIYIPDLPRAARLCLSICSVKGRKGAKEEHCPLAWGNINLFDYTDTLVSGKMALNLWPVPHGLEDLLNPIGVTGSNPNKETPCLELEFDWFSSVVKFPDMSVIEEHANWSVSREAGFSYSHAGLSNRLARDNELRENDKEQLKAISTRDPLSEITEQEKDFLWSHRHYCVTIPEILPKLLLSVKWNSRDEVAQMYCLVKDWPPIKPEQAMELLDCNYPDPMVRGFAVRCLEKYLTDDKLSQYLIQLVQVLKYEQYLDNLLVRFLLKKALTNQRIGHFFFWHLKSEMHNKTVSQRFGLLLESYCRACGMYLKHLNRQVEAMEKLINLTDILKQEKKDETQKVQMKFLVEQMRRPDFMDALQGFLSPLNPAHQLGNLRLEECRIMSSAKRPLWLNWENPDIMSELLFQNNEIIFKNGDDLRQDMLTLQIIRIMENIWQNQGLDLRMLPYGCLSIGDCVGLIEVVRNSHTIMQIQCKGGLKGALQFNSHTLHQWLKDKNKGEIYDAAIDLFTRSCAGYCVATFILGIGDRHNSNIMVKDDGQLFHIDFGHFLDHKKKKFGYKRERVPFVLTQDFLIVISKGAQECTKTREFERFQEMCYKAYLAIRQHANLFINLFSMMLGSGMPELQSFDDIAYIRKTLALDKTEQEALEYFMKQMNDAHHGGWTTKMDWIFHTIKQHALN
Chain of PI3Kα (P27986 whole entry partner): as the sequence (P27986 whole entry partner, species assumed) above
Description: EC50 values were determined by quantifying phosphorylation on S473 residues of Akt in A549 human adenocarcinoma cells by ELISA (enzyme linked immunoadsorbent assay, R&D Systems, DYC887BE). A549 cells were seeded into 96-well plates (50,000 cells/well) in DMEM supplemented with 10% foetal bovine serum and 1% penicillin-streptomyocin. Following 24 h in culture cells were starved for 24 h in serum-free DMEM before 15 minute treatment with a concentration response curve of compounds. Experimental compounds were diluted in DMSO into […] 1:3 concentration response curves in polypropylene V-bottom plates (SLS MIC9050). Concentration response curves were diluted to a 3× stock in serum-free DMEM. Standard 8-point concentration response curves were performed at 50, 16.7, 5.6, 1.9, 0.6, 0.2, 0.07, 0.02 μM and serum-free DMEM containing 0.5% DMSO was used as a negative control. […] A549 cells were seeded at 50,000 cells per well in 96-well plates in DMEM (10% FBS+1% P/S). The next day cells were washed once with PBS before addition of serum-free DMEM for 24 h. On the day of treatment cells, were incubated in fresh serum-free DMEM prior to treatment. Compounds solubilised to 10 mM in DMSO were diluted 1:3 in an 8-point concentration response curve in DMSO. Concentration response curves were diluted in serum-free DMEM by transfer into intermediate plates using a BRAVO liquid handler (Agilent). Intermediate plates were then used to treat cell plates using the BRAVO liquid handler. Compound concentration response curves had atop concentration of 50 μM and a final well concentration of 0.5% DMSO. Cell plates were treated for 15 min at 37° C., 5% CO2 before being washed with ice-cold PBS and lysed in lysis buffer 6 (R&D Systems #895561) and freezing at −80° C. Levels of pAKT-S473 were determined using the phospho-AKT (S473) pan-specific Duoset IC ELISA (R&D Systems #DYC887BE) in 96-well white high-binding plates (Corning #3922) according to manufacturer's instructions. Endpoint luminescence was measured using a Sense (Hidex) platereader. […] Data were transformed and EC50 data were determined by variable slope (4 parameters) non-linear regression using Prism 7 (Graphpad).

effect on in vitro lipid kinase activity of PI3Kβ (PI3Kβ): not PI3Kβ
EC50 (PI3Kα; EC50 for induction of pAKT, 15 min treatment): 2 to 4 µM
Emax (PI3Kα; read-out: AKT phosphorylation, % of Emax of 1 μM insulin, doses of 5-10 μM 1938): ~200%
SMILES: CCN1CCN(c2ccc(Nc3cc(Nc4cccc5c4N(C(C)=O)CC5)ccn3)cc2)CC1 [Example 1938]
